According to patent publication US20090017139A1, “Iodine therapy dosing for treating medical conditions” (priority 2007, published 2009):

Columns and labels:
[1] = in drinking water, 100 days; cited from earlier work
[2] = reacts with water at neutral pH; cited from earlier work
[3] = cited from earlier work
iodine naive women = test: Example 3: I2 safety study, treatment emergent thyroid status in iodine naive women; format: in vivo, human; settings: for Hyperthyroidism Overt ↓TSH ↑T4 / Hyperthyroidism Sub-clinical ↓TSH / Hypothyroidism Overt ↑TSH (5-10) ↓T4 / Hypothyroidism Overt ↑TSH (10-20) ↓T4 / Hypothyroidism Overt ↑TSH (>20) ↓T4 / Hypothyroidism Sub-clinical ↑TSH (5-10) / Hypothyroidism Sub-clinical ↑TSH (10-20) / Hypothyroidism Sub-clinical ↑TSH (>20): iodine naive, patients (percent of dose group)
Method: A second I2 safety study was conducted in women not previously exposed to iodine therapy (iodine naïve). […] Thyroid functions laboratory values were available for 365 patients. The age of the female participants ranged from 20 to 55; the average age was 42.4 years. Variations in treatment emergent thyroid status were evaluated based on TSH and T4 values (see Table 2). […] Patients were categorized sub-clinical hypothyroid if TSH was elevated and T4 values were normal; patients with depressed T4 values were considered overtly hypothyroid.
Sub-clinical hyperthyroidism is not correlated to an increased rate of either overt hyperthyroidism or overt hypothyroidism. On the other hand, it is well established that sub-clinical hypothyroidism is a risk factor for overt hypothyroidism. In fact, as stated in Example 2, antibodies to thyroid peroxidase combined with sub-clinical hypothyroidism are established risk factors for overt thyroid disease in women between the age of 30 and 50. Therefore the key question is whether or not dose is related to the frequency of sub-clinical hypothyroidism. Kendall's rank correlation was used to evaluate the relationship between dose and frequency of sub-clinical hypothyroidism.

[4] = I2 compared to iodide, cited from earlier work
[5] = tested on: female patients with fibrocystic breast condition; test: Example 2: 36 month study, treatment emergent thyroid status in iodine adapted patients; format: in vivo, human; settings: for Hyperthyroidism Overt ↓TSH ↑T4 / Hyperthyroidism Subclinical ↓TSH / Hypothyroidism Overt ↑TSH (5-10) ↓T4 / Hypothyroidism Overt ↑TSH (10-20) ↓T4 / Hypothyroidism Overt ↑TSH (>20) ↓T4 / Hypothyroidism Subclinical ↑TSH (5-10) / Hypothyroidism Subclinical ↑TSH (10-20) / Hypothyroidism Subclinical ↑TSH (>20): iodine adapted, patients (percent of dose group)
Method: Female patients already receiving aqueous I2 therapy for fibrocystic breast condition were enrolled in study that ran for 36 months. Patients in this study were dosed at I2 levels that ranged from 3 to 12 mg/d. A total of 923 patients were enrolled; over 700 patients remained on drug for at least 2 years. The ages of participants ranged from 17 to 78 years with an average age of 47.4 years.
Variations in treatment emergent thyroid status were evaluated based on TSH and T4 values (see Table 1). […] Patients were categorized sub-clinical hypothyroid if TSH was elevated and T4 values were normal; patients with depressed T4 values were considered overtly hypothyroid.

[6] = tested on: euthyroid mastalgia patients; test: Example 1: multi-center, randomized, double-blind, placebo-controlled 6 month mastalgia study; format: in vivo, human; settings: for change in the Lewin Overall pain scale: 6.0 mg/d
Method: A multi-center, randomized, double-blind, placebo-controlled study dosed patients for 6 months with 0.0, 1.5, 3.0 and 6.0 mg I2 daily. Healthy euthyroid mastalgia patients between the ages of 18 and 50 who were unresponsive to conservative treatments like OTC analgesics were eligible for the study. Subjects needed to identify a history of at least six months of moderate or severe breast pain and document at least 6 days per cycle of moderate or severe pain in a daily dairy (FIG. 1 below).

## II [I2, molecular iodine]
[1]
  suppressing thyroid uptake of a challenge dose of 125iodide: less effective than iodide
[2]
  maximum period of storage in an aqueous environment: 2 to 8 h
[3]; oral administration
  iodine uptake in thyroid compared to iodide: half as much
[3]; perchlorate 6 mg i.p., 2 hr predosing
  reduction of thyroidal uptake by perchlorate: 40%
Iodine naive women; I2 2.0 mg/d
  Hyperthyroidism Overt ↓TSH ↑T4: 0 (0.0)
  Hyperthyroidism Sub-clinical ↓TSH: 2 (3.4)
  Hypothyroidism Overt ↑TSH (5-10) ↓T4: 1 (1.7)
  Hypothyroidism Overt ↑TSH (10-20) ↓T4: 0 (0.0)
  Hypothyroidism Overt ↑TSH (>20) ↓T4: 0 (0.0)
  Hypothyroidism Sub-clinical ↑TSH (5-10): 3 (5.2)
  Hypothyroidism Sub-clinical ↑TSH (10-20): 2 (3.4)
  Hypothyroidism Sub-clinical ↑TSH (>20): 0 (0.0)
Iodine naive women; I2 3.0 mg/d
  Hyperthyroidism Overt ↓TSH ↑T4: 2 (3.2)
  Hyperthyroidism Sub-clinical ↓TSH: 0 (0.0)
  Hypothyroidism Overt ↑TSH (5-10) ↓T4: 0 (0.0)
  Hypothyroidism Overt ↑TSH (10-20) ↓T4: 0 (0.0)
  Hypothyroidism Overt ↑TSH (>20) ↓T4: 0 (0.0)
  Hypothyroidism Sub-clinical ↑TSH (5-10): 5 (8.1)
  Hypothyroidism Sub-clinical ↑TSH (10-20): 0 (0.0)
  Hypothyroidism Sub-clinical ↑TSH (>20): 0 (0.0)
Iodine naive women; I2 6.0 mg/d
  Hyperthyroidism Overt ↓TSH ↑T4: 0 (0.0)
  Hyperthyroidism Sub-clinical ↓TSH: 2 (3.3)
  Hypothyroidism Overt ↑TSH (5-10) ↓T4: 0 (0.0)
  Hypothyroidism Overt ↑TSH (10-20) ↓T4: 0 (0.0)
  Hypothyroidism Overt ↑TSH (>20) ↓T4: 1 (1.7)
  Hypothyroidism Sub-clinical ↑TSH (5-10): 6 (10)
  Hypothyroidism Sub-clinical ↑TSH (10-20): 0 (0.0)
  Hypothyroidism Sub-clinical ↑TSH (>20): 0 (0.0)
Iodine naive women; I2 9.0 mg/d
  Hyperthyroidism Overt ↓TSH ↑T4: 2 (3.5)
  Hyperthyroidism Sub-clinical ↓TSH: 2 (3.5)
  Hypothyroidism Overt ↑TSH (5-10) ↓T4: 2 (3.5)
  Hypothyroidism Overt ↑TSH (10-20) ↓T4: 0 (0.0)
  Hypothyroidism Overt ↑TSH (>20) ↓T4: 1 (1.8)
  Hypothyroidism Sub-clinical ↑TSH (5-10): 8 (14)
  Hypothyroidism Sub-clinical ↑TSH (10-20): 0 (0.0)
  Hypothyroidism Sub-clinical ↑TSH (>20): 0 (0.0)
Iodine naive women; I2 .03 mg/d
  Hyperthyroidism Overt ↓TSH ↑T4: 0 (0.0)
  Hyperthyroidism Sub-clinical ↓TSH: 1 (1.5)
  Hypothyroidism Overt ↑TSH (5-10) ↓T4: 0 (0.0)
  Hypothyroidism Overt ↑TSH (10-20) ↓T4: 0 (0.0)
  Hypothyroidism Overt ↑TSH (>20) ↓T4: 0 (0.0)
  Hypothyroidism Sub-clinical ↑TSH (5-10): 3 (4.6)
  Hypothyroidism Sub-clinical ↑TSH (10-20): 0 (0.0)
  Hypothyroidism Sub-clinical ↑TSH (>20): 0 (0.0)
Iodine naive women; Kendall's rank correlation p 0.0167, Cuzik's trend test p less than 0.01
  relationship between daily dose and frequency of sub-clinical hypothyroidism: correlated to the frequency of sub-clinical hypothyroidism
Iodine naive women; iodine naive patients
  Overt hypothyroidism, patients (second statement, compared to prevalence of overt hyperthyroidism): 1.6%
Iodine naive women; iodine naive patients, Fisher's exact test
  incidence of abnormal thyroid function, placebo versus treatment groups: did not differ
Iodine naive women; iodine naive patients, first statement
  Overt hypothyroidism, patients: 1.3%
[4]
  percentage of administered iodine retained in the stomach contents and covalently bound to a lipid material: larger percentage
  percentage of iodine retained in thyroid 72 hours after administration, compared to iodide: significantly less
[4]; fasted rats, acute exposure
  retention of iodine in thyroid at 72 hours, less than with iodide: about 30%
[5]; 3 mg dose group
  proportion of patients with sub-clinical hypothyroidism: 13%
  rate of all sub-clinical conditions: 18.3%
[5]; 6 mg dose group
  proportion of patients with sub-clinical hypothyroidism: 16.5%
  rate of all sub-clinical conditions: 22.2%
[5]; I2 3.0 mg/d
  Hyperthyroidism Overt ↓TSH ↑T4: 1 (0.3)
  Hyperthyroidism Subclinical ↓TSH: 16 (5.3)
  Hypothyroidism Overt ↑TSH (5-10) ↓T4: 2 (0.4)
  Hypothyroidism Overt ↑TSH (10-20) ↓T4: 0 (0.0)
  Hypothyroidism Overt ↑TSH (>20) ↓T4: 0 (0.0)
  Hypothyroidism Subclinical ↑TSH (5-10): 27 (9.0)
  Hypothyroidism Subclinical ↑TSH (10-20): 10 (3.3)
  Hypothyroidism Subclinical ↑TSH (>20): 2 (0.7)
[5]; I2 6.0 mg/d
  Hyperthyroidism Overt ↓TSH ↑T4: 1 (0.2)
  Hyperthyroidism Subclinical ↓TSH: 28 (5.7)
  Hypothyroidism Overt ↑TSH (5-10) ↓T4: 0 (0.0)
  Hypothyroidism Overt ↑TSH (10-20) ↓T4: 2 (0.4)
  Hypothyroidism Overt ↑TSH (>20) ↓T4: 2 (0.4)
  Hypothyroidism Subclinical ↑TSH (5-10): 70 (14)
  Hypothyroidism Subclinical ↑TSH (10-20): 10 (2.0)
  Hypothyroidism Subclinical ↑TSH (>20): 1 (0.2)
[5]; I2 9.0 mg/d
  Hyperthyroidism Overt ↓TSH ↑T4: 0 (0.0)
  Hyperthyroidism Subclinical ↓TSH: 0 (0.0)
  Hypothyroidism Overt ↑TSH (5-10) ↓T4: 0 (0.0)
  Hypothyroidism Overt ↑TSH (10-20) ↓T4: 0 (0.0)
  Hypothyroidism Overt ↑TSH (>20) ↓T4: 0 (0.0)
  Hypothyroidism Subclinical ↑TSH (5-10): 0 (0.0)
  Hypothyroidism Subclinical ↑TSH (10-20): 1 (6.3)
  Hypothyroidism Subclinical ↑TSH (>20): 1 (6.3)
[5]; I2 12.0 mg/d
  Hyperthyroidism Overt ↓TSH ↑T4: 0 (0.0)
  Hyperthyroidism Subclinical ↓TSH: 1 (25)
  Hypothyroidism Overt ↑TSH (5-10) ↓T4: 0 (0.0)
  Hypothyroidism Overt ↑TSH (10-20) ↓T4: 0 (0.0)
  Hypothyroidism Overt ↑TSH (>20) ↓T4: 0 (0.0)
  Hypothyroidism Subclinical ↑TSH (5-10): 0 (0.0)
  Hypothyroidism Subclinical ↑TSH (10-20): 0 (0.0)
  Hypothyroidism Subclinical ↑TSH (>20): 0 (0.0)
[5]; all patients, 3 to 12 mg/d
  Overt hypothyroidism, patients (second statement, compared to prevalence of overt hyperthyroidism): 0.5%
  overall incidence of treatment emergent sub-clinical hyper- or hypothyroidism: 20.6%
[5]; all patients, 3 to 12 mg/d, first statement
  Overt hypothyroidism, patients: 0.2%
[6]; month 3
  change in the Lewin Overall pain scale: 45.4%
[6]; month 6
  change in the Lewin Overall pain scale: 45.0%
[6]; 1.5, 3.0, 6.0 mg daily, month 3 and month 6 (p<0.01)
  magnitude of pain reduction versus dose: increased with dose
[6]; first 3 months of treatment
  difference among dosing groups in adverse events or thyroid related clinical chemistry tests: did not find any difference
